We go through 24 molecules from patent US9464084B2, “P2X7 modulators” (Janssen Pharmaceutica NV, priority 2013, dated 2016).

Common to all, as to assay type: cell-based
One test has as its target rat P2X7 (Rattus norvegicus (Rat), UniProt Q64663). In words: Ca2+ flux (FLIPR) in 1321N1 cells expressing recombinant rat P2X7 channel.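 Further: Calcium-4 dye fluorescence change read 180 s after agonist addition, following 30 min cell preincubation with test compound.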 As to conditions: 250 μM BzATP. A general note: A change in cytosolic calcium serves as a functional read-out for many receptors and channels.
Test [1] deals with T1, P2X7 (Homo sapiens (Human), UniProt Q99572). In words: Ca2+ flux (FLIPR) in 1321N1 cells expressing recombinant human P2X7 channel.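 Further: Calcium-4 dye-loaded cells exposed to compound for 30 min before agonist addition, fluorescence change read 180 s after agonist.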 As to conditions: 250 μM BzATP.
Method: Cells were seeded at a density of 25000 cells/well (96-well clear bottom black walled plates) in 100 μl volume/well. On the day of the experiment, cell plates were washed with assay buffer, containing (in mM): 130 NaCl, 2 KCl, 1 CaCl2, 1 MgCl2, 10 HEPES, 5 glucose; pH 7.40 and 300 mOs. After the wash, cells were loaded with the Calcium-4 dye (Molecular Device) and incubated in the dark for 60 minutes. Test compounds were prepared at 250× the test concentration in neat DMSO. Intermediate 96-well compound plates were prepared by transferring 1.2 μL of the compound into 300 μL of assay buffer. A further 3× dilution occurred when transferring 50 μL/well of the compound plate to 100 μL/well in the cell plate. Cells were incubated with test compounds and dye for 30 minutes. […] The fluorescence change was measured 180 seconds after adding the agonist.
Test [2] concerns the target T1, P2X7. In words: P2X7 antagonism in human PBMCs (LPS + Bz-ATP induced IL-1β release, ELISA).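 On all read-outs here: PBMCs from donor human blood, with a further 1.5 h incubation of the cells in the assay.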 As to conditions: LPS 30 ng/ml, Bz-ATP 0.5 mM; for PBMC 10 μM (% control): compound 10 μM; for PBMC 1 μM (% control): compound 1 μM.

A word on the IC50: it is the point on the concentration scale where inhibition reaches its midpoint.

Chain of rat P2X7 (Q64663 whole entry): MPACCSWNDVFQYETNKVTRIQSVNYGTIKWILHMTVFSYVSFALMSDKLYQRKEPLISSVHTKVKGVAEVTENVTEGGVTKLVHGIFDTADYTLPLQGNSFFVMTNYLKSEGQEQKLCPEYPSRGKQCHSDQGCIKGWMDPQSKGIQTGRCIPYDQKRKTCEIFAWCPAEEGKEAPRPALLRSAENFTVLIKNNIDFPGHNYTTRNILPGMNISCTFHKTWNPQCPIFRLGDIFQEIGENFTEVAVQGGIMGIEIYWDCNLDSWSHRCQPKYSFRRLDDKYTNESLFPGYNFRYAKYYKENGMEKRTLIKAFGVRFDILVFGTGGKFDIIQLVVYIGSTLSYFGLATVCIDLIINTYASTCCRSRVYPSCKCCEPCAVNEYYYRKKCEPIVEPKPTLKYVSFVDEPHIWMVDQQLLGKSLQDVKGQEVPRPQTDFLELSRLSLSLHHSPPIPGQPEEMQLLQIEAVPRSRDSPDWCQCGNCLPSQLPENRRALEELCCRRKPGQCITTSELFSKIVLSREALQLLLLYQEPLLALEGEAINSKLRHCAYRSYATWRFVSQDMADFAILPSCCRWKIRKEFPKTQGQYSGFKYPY
T1 sequence (Q99572 whole entry): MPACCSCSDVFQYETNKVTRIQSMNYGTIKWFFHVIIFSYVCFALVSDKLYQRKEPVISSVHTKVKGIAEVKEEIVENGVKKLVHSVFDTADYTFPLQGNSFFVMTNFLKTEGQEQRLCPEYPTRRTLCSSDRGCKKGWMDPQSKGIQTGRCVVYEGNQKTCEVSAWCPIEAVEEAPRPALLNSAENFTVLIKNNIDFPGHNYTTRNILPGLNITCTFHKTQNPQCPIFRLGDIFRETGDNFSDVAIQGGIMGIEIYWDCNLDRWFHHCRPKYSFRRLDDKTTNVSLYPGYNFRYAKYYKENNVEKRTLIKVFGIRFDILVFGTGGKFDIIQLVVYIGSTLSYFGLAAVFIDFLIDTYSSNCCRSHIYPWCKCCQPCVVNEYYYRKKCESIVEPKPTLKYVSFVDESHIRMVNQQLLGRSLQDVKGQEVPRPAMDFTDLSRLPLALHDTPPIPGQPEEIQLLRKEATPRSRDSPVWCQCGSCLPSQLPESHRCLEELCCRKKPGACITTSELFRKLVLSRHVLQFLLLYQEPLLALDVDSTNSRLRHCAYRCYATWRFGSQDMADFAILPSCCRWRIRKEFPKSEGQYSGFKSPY

In the case of `CC1c2nnn(-c3ccc(F)cn3)c2CCN1C(=O)c1cccc(C(F)(F)F)c1Cl` (stereo not shown) [Example 71, 5-{[2-Chloro-3-(trifluoromethyl)phenyl]carbonyl}-1-(5-fluoropyridin-2-yl)-4-methyl-4,5,6,7-tetrahydro-1H-[1,2,3]triazolo[4,5-c]pyridine], the IC50 on rat P2X7 worked out at 397 nM; on P2X7 [1], 49 nM. Besides, at P2X7 [2], the “PBMC 10 μM (% control)” value is on record as 11.1 % control.

As to `CC1c2c(nnn2-c2ccccc2)CCN1C(=O)c1cccc(C(F)(F)F)c1Cl` (stereo not shown) [Example 289, (2-chloro-3-(trifluoromethyl)phenyl)(4-methyl-3-phenyl-6,7-dihydro-3H-[1,2,3]triazolo[4,5-c]pyridin-5(4H)-yl)methanone], the concentration for half-maximal inhibition (IC50) turned out to be 2410 nM at rat P2X7 and 1190 nM on P2X7 [1]. Further, the “PBMC 10 μM (% control)” value at P2X7 [2] is reported as −27.6 % control.

Take `C[C@H]1Cc2c(nnn2-c2ncc(F)cn2)CN1C(=O)c1ccc(Cl)cc1F` [Example 156, (S)-(4-chloro-2-fluorophenyl)(1-(5-fluoropyrimidin-2-yl)-6-methyl-6,7-dihydro-1H-[1,2,3]triazolo[4,5-c]pyridin-5(4H)-yl)methanone]: the values for the IC50 on rat P2X7 and at P2X7 [1] were 604 nM and 14.4 nM, respectively. Besides, the “PBMC 10 μM (% control)” value at P2X7 [2] was 1.8 % control.

In the case of `CC1CN(C(=O)c2cccc(C(F)(F)F)c2Cl)C(C)c2nnn(-c3ccc(F)cc3)c21` (stereo not shown) [Example 238, (2-Chloro-3-(trifluoromethyl)phenyl)(1-(4-fluorophenyl)-4,7-dimethyl-6,7-dihydro-1H-[1,2,3]triazolo[4,5-c]pyridin-5(4H)-yl)methanone], the IC50 at rat P2X7 stood at 724 nM; on P2X7 [1] it was 27.1 nM. The “PBMC 10 μM (% control)” value at P2X7 [2] is given as −4.1 % control.

As to `Cn1nc(-c2ccc(F)cc2)c2c1CN(C(=O)c1cccc(Cl)c1Cl)CC2` [Example 109, 6-[(2,3-Dichlorophenyl)carbonyl]-3-(4-fluorophenyl)-1-methyl-4,5,6,7-tetrahydro-1H-pyrazolo[3,4-c]pyridine], the half-maximal inhibitory concentration (IC50) on P2X7 [1] is 251 nM. Besides, the “PBMC 1 μM (% control)” value at P2X7 [2] is recorded as 94.1 % control.

Take `O=C(c1cccc(C(F)(F)F)c1Cl)N1CCc2c(nc(C(F)(F)F)n2-c2ccccc2)C1` [Example 38, (2-Chloro-3-(trifluoromethyl)phenyl)(1-phenyl-2-(trifluoromethyl)-6,7-dihydro-1H-imidazo[4,5-c]pyridin-5(4H)-yl)methanone]: the IC50 on P2X7 [1] is 14.3 nM. Moreover, on P2X7 [2], the “PBMC 10 μM (% control)” value is reported as −0.3 % control.

For the molecule `O=C(OCC1c2ncn(-c3ccccc3)c2CCN1C(=O)c1cccc(C(F)(F)F)c1Cl)c1cccc(C(F)(F)F)c1Cl` (stereo not shown) [Example 36, (5-{[2-Chloro-3-(trifluoromethyl)phenyl]carbonyl}-1-phenyl-4,5,6,7-tetrahydro-1H-imidazo[4,5-c]pyridin-4-yl)methyl 2-chloro-3-(trifluoromethyl)benzoate], at P2X7 [1], the IC50 is 3080 nM. Besides, the “PBMC 1 μM (% control)” value on P2X7 [2] is given as 16.6 % control.

With `CC1(C)c2ncn(-c3ccccc3)c2CCN1C(=O)c1cccc(C(F)(F)F)c1Cl` [Example 53, 5-{[2-Chloro-3-(trifluoromethyl)phenyl]carbonyl}-4,4-dimethyl-1-phenyl-4,5,6,7-tetrahydro-1H-imidazo[4,5-c]pyridine], the IC50 at rat P2X7 was 4950 nM. In addition, the “PBMC 1 μM (% control)” value on P2X7 [2] is 99.0 % control.

Regarding `Cc1ccnc(-n2nnc3c2CCN(C(=O)c2cccc(C(F)(F)F)c2F)C3C)n1` (stereo not shown) [Example 269, (2-fluoro-3-(trifluoromethyl)phenyl)(4-methyl-1-(4-methylpyrimidin-2-yl)-6,7-dihydro-1H-[1,2,3]triazolo[4,5-c]pyridin-5(4H)-yl)methanone], the concentration for half-maximal inhibition (IC50) on rat P2X7 was 20.6 nM. In addition, the “PBMC 10 μM (% control)” value at P2X7 [2] stood at 16.3 % control.

With `CC1CN(C(=O)c2cccc(Cl)c2Cl)Cc2nnn(-c3ccc(F)cc3)c21` (stereo not shown) [Example 247, (2,3-Dichlorophenyl)(1-(4-fluorophenyl)-7-methyl-6,7-dihydro-1H-[1,2,3]triazolo[4,5-c]pyridin-5(4H)-yl)methanone], the IC50 on P2X7 [1] came to 2330 nM. Further, at P2X7 [2], the “PBMC 10 μM (% control)” value is recorded as −0.8 % control.

Turning to `COc1ccc(-n2nnc3c2CCN(C(=O)c2cccc(C(F)(F)F)c2Cl)C3C)nc1` (stereo not shown) [Example 145, (2-Chloro-3-(trifluoromethyl)phenyl)(1-(5-methoxypyridin-2-yl)-4-methyl-6,7-dihydro-1H-[1,2,3]triazolo[4,5-c]pyridin-5(4H)-yl)methanone], at P2X7 [1], the IC50 was 2310 nM. Moreover, the “PBMC 10 μM (% control)” value on P2X7 [2] amounted to 15.2 % control.

For the molecule `Cc1cc(C)nc(-n2nnc3c2CCN(C(=O)c2cccc(C(F)(F)F)c2Cl)C3C)n1` (stereo not shown) [Example 253, (2-Chloro-3-(trifluoromethyl)phenyl)(1-(4,6-dimethylpyrimidin-2-yl)-4-methyl-6,7-dihydro-1H-[1,2,3]triazolo[4,5-c]pyridin-5(4H)-yl)methanone], at rat P2X7, the IC50 was found to be 12700 nM. Besides, on P2X7 [2], the “PBMC 10 μM (% control)” value is −2.6 % control.

Take `Cc1cc(C)nc(-n2nnc3c2CCN(C(=O)c2cccc(C(F)(F)F)c2Cl)[C@@H]3C)n1` (single isomer, unassigned) [Example 181, (R*)-(2-chloro-3-(trifluoromethyl)phenyl)(1-(4,6-dimethylpyrimidin-2-yl)-4-methyl-6,7-dihydro-1H-[1,2,3]triazolo[4,5-c]pyridin-5(4H)-yl)methanone]: the IC50 at rat P2X7 was greater than 10000 nM. The “PBMC 10 μM (% control)” value on P2X7 [2] is −0.1 % control.

On to `O=C(c1cccc(C(F)(F)F)c1Cl)N1C=Cc2c(nnn2-c2cnccn2)C1c1ccccc1` (stereo not shown) [Example 76, 5-{[2-Chloro-3-(trifluoromethyl)phenyl]carbonyl}-4-phenyl-1-pyrazin-2-yl-4,5-dihydro-1H-[1,2,3]triazolo[4,5-c]pyridine], for which, at rat P2X7, the IC50 was 32.4 nM. In addition, the “PBMC 1 μM (% control)” value on P2X7 [2] is 1.6 % control.

On to `CCc1ccnc(-n2nnc3c2CCN(C(=O)c2cccc(C(F)(F)F)c2Cl)[C@@H]3C)n1` (single isomer, unassigned) [Example 294, (R*)-(2-chloro-3-(trifluoromethyl)phenyl)(1-(4-ethylpyrimidin-2-yl)-4-methyl-6,7-dihydro-1H-[1,2,3]triazolo[4,5-c]pyridin-5(4H)-yl)methanone], for which the half-inhibitory concentration (IC50) on rat P2X7 was determined as 2.8 nM. In addition, on P2X7 [2], the “PBMC 10 μM (% control)” value is −8.1 % control.

Turning to `O=C(c1ccc(Cl)cc1Cl)N1CCc2c(nnn2-c2cnccn2)C1` [Example 277, (2,4-dichlorophenyl)(1-(pyrazin-2-yl)-6,7-dihydro-1H-[1,2,3]triazolo[4,5-c]pyridin-5(4H)-yl)methanone], at rat P2X7, the IC50 is 1920 nM. In addition, on P2X7 [2], the “PBMC 10 μM (% control)” value is reported as −3.7 % control.

Turning to `O=C(c1cccc(C(F)(F)F)c1Cl)N1CCc2c(nnn2-c2ccccn2)C1` [Example 63, 5-{[2-Chloro-3-(trifluoromethyl)phenyl]carbonyl}-1-pyridin-2-yl-4,5,6,7-tetrahydro-1H-[1,2,3]triazolo[4,5-c]pyridine], the IC50 on rat P2X7 is 1090 nM. Also, the “PBMC 1 μM (% control)” value at P2X7 [2] amounted to 12.6 % control.

For `C[C@@H]1c2nnn(-c3ccccn3)c2CCN1C(=O)c1ccc(F)c(Cl)c1Cl` (single isomer, unassigned) [Example 141, (R*)-(2,3-Dichloro-4-fluorophenyl)(4-methyl-1-(pyridin-2-yl)-6,7-dihydro-1H-[1,2,3]triazolo[4,5-c]pyridin-5(4H)-yl)methanone], the 50% inhibitory concentration (IC50) at P2X7 [1] came out at 9590 nM. On P2X7 [2], the “PBMC 10 μM (% control)” value turned out to be 40.5 % control.

In the case of `CC1CN(C(=O)c2cccc(Cl)c2Cl)Cc2nnn(-c3ccccc3)c21` (stereo not shown) [Example 244, (2,3-Dichlorophenyl)(7-methyl-1-phenyl-6,7-dihydro-1H-[1,2,3]triazolo[4,5-c]pyridin-5(4H)-yl)methanone], the IC50 at P2X7 [1] was found to be 1140 nM. Moreover, the “PBMC 10 μM (% control)” value on P2X7 [2] is reported as −2.3 % control.

For the molecule `O=C(c1ccc(Cl)cc1Cl)N1CCc2c(ncn2-c2ccc(F)cn2)C1` [Example 313, (2,4-dichlorophenyl)(1-(5-fluoropyridin-2-yl)-6,7-dihydro-1H-imidazo[4,5-c]pyridin-5(4H)-yl)methanone], the IC50 on P2X7 [1] was found to be 1110 nM. In addition, the “PBMC 10 μM (% control)” value at P2X7 [2] was −5.4 % control.

Turning to `CCCOc1cccnc1-n1nnc2c1CCN(C(=O)c1cccc(C(F)(F)F)c1Cl)C2C` (stereo not shown) [Example 293, (2-chloro-3-(trifluoromethyl)phenyl)(4-methyl-1-(3-propoxypyridin-2-yl)-6,7-dihydro-1H-[1,2,3]triazolo[4,5-c]pyridin-5(4H)-yl)methanone], the IC50 on rat P2X7 was found to be 428 nM. The “PBMC 10 μM (% control)” value on P2X7 [2] was −11.3 % control.

For `C[C@@H]1c2nnn(-c3ccn(CCF)n3)c2CCN1C(=O)c1cccc(C(F)(F)F)c1Cl` (single isomer, unassigned) [Example 171, (R*)-(2-Chloro-3-(trifluoromethyl)phenyl)(1-(1-(2-fluoroethyl)-1H-pyrazol-3-yl)-4-methyl-6,7-dihydro-1H-[1,2,3]triazolo[4,5-c]pyridin-5(4H)-yl)methanone], the 50% inhibitory concentration (IC50) on rat P2X7 was greater than 10000 nM. Also, the “PBMC 10 μM (% control)” value on P2X7 [2] came to 28.7 % control.

For `O=C(c1cccc(C(F)(F)F)c1Cl)N1CCc2c(ncn2-c2ccccn2)C1CF` (stereo not shown) [Example 32, (2-Chloro-3-(trifluoromethyl)phenyl)(4-(fluoromethyl)-1-(pyridin-2-yl)-6,7-dihydro-1H-imidazo[4,5-c]pyridin-5(4H)-yl)methanone], the 50% inhibitory concentration (IC50) on rat P2X7 stood at 65.5 nM. Also, the “PBMC 10 μM (% control)” value at P2X7 [2] was found to be 1.9 % control.

Turning to `CC1c2ncn(-c3ncccn3)c2CCN1C(=O)c1cccc(C(F)(F)F)c1Cl` (stereo not shown) [Example 23, (2-Chloro-3-(trifluoromethyl)phenyl)(4-methyl-1-(pyrimidin-2-yl)-6,7-dihydro-1H-imidazo[4,5-c]pyridin-5(4H)-yl)methanone], the IC50 on rat P2X7 was determined as 90.6 nM. For the same molecule, the “PBMC 10 μM (% control)” value at P2X7 [2] came out at 6.4 % control.
